Data on 17 compounds can be found in US20120129843A1, “PYRIDYL-THIAZOLYL INHIBITORS OF PRO-MATRIX METALLOPROTEINASE ACTIVATION” (priority 2010, published 2012).

Structures can show the parent of a compound that is named as a salt. Where only a bound is given, the exact number is not on record here.

For assay [1], the target named is T1, proMMP9(20-445;ΔFnII) (SEQ ID NO:6) (Homo sapiens, UniProt P14780, DEL216-390).
T1 construct: start methionine (N); made in house; host or cells: E. coli BL21(DE3) RIL
T1 sequence (P14780 with tags, fused parts or gaps DEL216-390): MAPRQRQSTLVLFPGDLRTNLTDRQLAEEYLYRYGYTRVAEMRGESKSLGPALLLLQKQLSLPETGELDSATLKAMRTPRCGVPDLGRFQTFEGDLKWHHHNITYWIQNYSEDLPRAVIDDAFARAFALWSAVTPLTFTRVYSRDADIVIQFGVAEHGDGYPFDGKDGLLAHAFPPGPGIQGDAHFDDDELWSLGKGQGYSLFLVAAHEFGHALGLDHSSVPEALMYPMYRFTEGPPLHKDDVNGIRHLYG
Briefly: ThermoFluor binding assay with proMMP9(20-445;ΔFnII). An outline of the steps: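 Thermal-shift binding using 2.8 μM proMMP9(20-445;ΔFnII) with 50 μM 1,8-ANS in 50 mM HEPES pH 7.0, 100 mM NaCl, 0.001% Tween-20, 2.5 mM MgCl2, 300 μM CaCl2. Compound serially diluted; heated 40–90 °C at 1 °C/min, fluorescence 500 nm. Tm shifts fitted using DSC/ThermoFluor-derived thermodynamic parameters.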

The target of assay [2] is T2, proMMP9(67-444;ΔFnII) (SEQ ID NO:5) (Homo sapiens, UniProt P14780, DEL216-390).
T2 construct: start methionine (N); made in house; host or cells: E. coli BL21(DE3) RIL
T2 sequence (P14780 with tags, fused parts or gaps DEL216-390): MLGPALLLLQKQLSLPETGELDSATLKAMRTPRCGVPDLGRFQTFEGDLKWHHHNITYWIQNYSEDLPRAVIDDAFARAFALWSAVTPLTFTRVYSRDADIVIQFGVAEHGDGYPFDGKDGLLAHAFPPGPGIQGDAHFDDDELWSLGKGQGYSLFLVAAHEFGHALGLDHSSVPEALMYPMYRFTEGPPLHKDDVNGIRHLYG
The assay is described as follows: ThermoFluor binding assay with proMMP9(67-444;ΔFnII). In a few lines:
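Thermal shift with 3.5 μM desalted proMMP9(67-444;ΔFnII) and 50 μM 1,8-ANS in 50 mM HEPES pH 7.0, 100 mM NaCl, 0.001% Tween-20, 2.5 mM MgCl2, 300 μM CaCl2; compounds serially diluted. Heated 40–90 °C at 1 °C/min, fluorescence at 500 nm; Tm fit, binding modelled using DSC-derived thermodynamic parameters.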

For assay [3], the target named is T3, proMMP13(1-268) (SEQ ID NO:7) (Homo sapiens, UniProt P45452).
T3 construct: 6xHis (C); made in house; host or cells: HEK293 (transient, secreted)
The assay is described as follows: ThermoFluor binding assay with proMMP13(1-268). The protocol:
The ThermoFluor® (TF) assay is a 384-well plate-based binding assay that measures thermal stability of proteins (Biomol Screen 2001, 6, 429-40; Biochemistry 2005, 44, 5258-66). The experiments were carried out using instruments available from Johnson & Johnson Pharmaceutical Research & Development, LLC. TF dye used in all experiments was […] (1,8-ANS) (Invitrogen: A-47).
Compounds were arranged in a pre-dispensed plate (Greiner Bio-one: 781280), wherein compounds were serially diluted in 100% DMSO across 11 columns within a series. Columns 12 and 24 were used as DMSO reference and contained no compound. For multiple compound concentration-response experiments, the compound aliquots ([…]) were robotically predispensed directly into black 384-well polypropylene PCR microplates (Abgene: TF-0384/k) using a Cartesian Hummingbird liquid handler (DigiLab, Holliston, Mass.). Following compound dispense, protein and dye solutions were added to achieve the final assay volume of 3 μL. The assay solutions were overlayed with 1 μL of silicone oil (Fluka, type DC 200: 85411) to prevent evaporation.
Assay plates were robotically loaded onto a thermostatically controlled PCR-type thermal block and then heated from 40 to 90° C. at a ramp-rate of 1° C./min for all experiments. Fluorescence was measured by continuous illumination with UV light (Hamamatsu LC6) supplied via fiber optics and filtered through a band-pass filter (380-400 nm; >60D cutoff). Fluorescence emission of the entire 384-well plate was detected by measuring light intensity using a CCD camera (Sensys, Roper Scientific) filtered to detect 500±25 nm, resulting in simultaneous and independent readings of all 384 wells. A single image with 20-sec exposure time was collected at each temperature, and the sum of the pixel intensity in a given area of the assay plate was recorded vs temperature and fit to standard equations to yield the Tm (J Biomol Screen 2001, 6, 429-40).
Thermodynamic parameters necessary for fitting compound binding for each proMMP were estimated by differential scanning calorimetry (DSC) and from ThermoFluor® data. The heat capacity of unfolding for each protein was estimated from the molecular weight and from ThermoFluor® dosing data.
ThermoFluor® with proMMP13(1-268) (SEQ ID NO: 7)
The proMMP13(1-268) (SEQ ID NO:7) protein sample preparations included a desalting buffer exchange step via a PD-10 gravity column (GE Healthcare). The desalting buffer exchange was performed prior to diluting the protein to the final assay concentration of 3.5 μM. The concentration of proMMP13(1-268) (SEQ ID NO:7) was estimated spectrophotometrically based on a calculated extinction coefficient of ε280=37000 M^−1cm^−1, a calculated molecular weight of 30.8 kDa, and calculated pI of 5.33. ThermoFluor® reference conditions were defined as follows: 100 μg/mL proMMP13(1-268) (SEQ ID NO:7), 25 μM 1,8-ANS, pH 7.0 Buffer (50 mM HEPES pH 7.0, 100 mM NaCl, 0.001% Tween-20, 2.5 mM MgCl2, 300 μM CaCl2). The thermodynamic parameters for proMMP13(1-268) (SEQ ID NO:7) are as follows: Tm (° C.)=67 (+/−0.1), ΔUH(Tm) (cal mol^−1)=107000(+/−5000), ΔUS(Tm) (cal mol^−1 K^−1)=318, ΔUCp (cal mol^−1 K^−1)=2600.

For assay [4], the target named is T4, full-length proMMP9(1-707) (SEQ ID NO:1), activation by catalytic MMP3 (Homo sapiens, UniProt P14780, R574P).
T4 construct: made in house; host or cells: HEK293 (proMMP9, secreted); E. coli (MMP3)
The assay is described as follows: proMMP9/MMP3 P126 Activation Assay. It counts as biochemical. The method, then: proMMP9/MMP3 P126 Activation Assay
The reaction volume was 50 μL. […] Reactivity of residual MMP3 towards P-126 substrate was minimal under these conditions.

T4 sequence (P14780 20-707 R574P): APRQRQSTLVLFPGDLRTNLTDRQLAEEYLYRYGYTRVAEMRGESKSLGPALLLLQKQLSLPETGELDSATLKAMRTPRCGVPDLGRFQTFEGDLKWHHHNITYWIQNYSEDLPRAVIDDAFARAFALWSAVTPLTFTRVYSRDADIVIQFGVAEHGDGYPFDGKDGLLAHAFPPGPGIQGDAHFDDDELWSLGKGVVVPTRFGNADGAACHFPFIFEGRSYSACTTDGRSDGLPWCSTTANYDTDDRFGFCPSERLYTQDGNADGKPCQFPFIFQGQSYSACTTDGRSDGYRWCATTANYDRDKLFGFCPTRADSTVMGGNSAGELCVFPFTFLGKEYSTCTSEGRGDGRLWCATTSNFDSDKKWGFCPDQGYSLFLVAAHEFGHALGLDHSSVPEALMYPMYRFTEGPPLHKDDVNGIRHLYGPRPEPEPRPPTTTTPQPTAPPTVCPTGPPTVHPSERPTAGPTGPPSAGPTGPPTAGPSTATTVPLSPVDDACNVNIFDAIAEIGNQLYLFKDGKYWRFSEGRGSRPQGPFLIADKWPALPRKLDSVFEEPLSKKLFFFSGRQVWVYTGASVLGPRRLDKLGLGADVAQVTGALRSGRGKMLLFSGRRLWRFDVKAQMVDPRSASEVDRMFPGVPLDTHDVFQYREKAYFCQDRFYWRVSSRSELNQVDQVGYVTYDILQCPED

As usually defined, the Kd is the constant that tells how readily two partners part at equilibrium. Read a low Kd as higher affinity. As a reminder, the IC50 is the midpoint of a concentration-inhibition curve. A low value points to greater potency. With `CCOc1ccc(C(N)=O)cc1Nc1nc(-c2cccnc2)cs1` [Example 2, 4-Ethoxy-3-(4-pyridin-3-yl-thiazol-2-ylamino)-benzamide.TFA], the Kd in assay [1] was determined as 0.73 µM; in assay [2], 1.5 µM; in assay [3], 2.6 µM. In assay [4], this compound had an IC50 of 0.74 µM.
In the same order, the values of `CC(C)Oc1ccc(C(N)=O)cc1Nc1nc(-c2ccncc2)cs1` [Example 15, 4-Isopropoxy-3-(4-pyridin-4-yl-thiazol-2-ylamino)-benzamide.HBr] are 0.25 µM, 0.47 µM, 0.73 µM and 0.28 µM.
On to `CC(C)Oc1ccc(C(N)=O)cc1Nc1nc(-c2ccccn2)cs1` [Example 14, 4-Isopropoxy-3-(4-pyridin-2-yl-thiazol-2-ylamino)-benzamide], for which the values for the Kd in assay [1], in assay [2] and in assay [3] were 0.21 µM, 1.9 µM and 0.93 µM, respectively. In assay [4], this compound had an IC50 of 0.5 µM.
On the same counts, the results for `CC(C)Oc1ccc(S(N)(=O)=O)cc1Nc1nc(-c2cccnc2)cs1` [Example 13, 4-Isopropoxy-3-(4-pyridin-3-yl-thiazol-2-ylamino)-benzenesulfonamide.TFA] are 2.3 µM, 10 µM, 1.2 µM and 2.4 µM.
On the same counts, the results for `CC(C)Oc1ccc(C(N)=O)cc1Nc1nc(-c2cccnc2)cs1` [Example 1, 4-Isopropoxy-3-(4-pyridin-3-yl-thiazol-2-ylamino)-benzamide.HBr] are 0.16 µM, 1 µM, 0.31 µM and 0.36 µM.
On the same counts, the results for `CC(C)Oc1ccc(C(N)=O)cc1Nc1nc(-c2cncc(Br)c2)cs1` [Example 22, 3-[4-(5-Bromo-pyridin-3-yl)-thiazol-2-ylamino]-4-isopropoxy-benzamide.TFA] are 1.3 µM, 5.7 µM, 2.9 µM and 4.6 µM.
With `CC(C)Oc1ccc(C(=O)O)cc1Nc1nc(-c2cccnc2)cs1` [Example 17, 4-Isopropoxy-3-(4-pyridin-3-yl-thiazol-2-ylamino)-benzoic acid.TFA], the Kd worked out at 3.6 µM in assay [1], 5.7 µM in assay [2] and 1.5 µM in assay [3]. Besides, the IC50 in assay [4] amounted to 4.3 µM.
On the same counts, the results for `CC(C)Oc1ccc(C(N)=O)cc1Nc1nc(-c2ccnc(Cl)c2)cs1` [Example 21, 3-[4-(2-Chloro-pyridin-4-yl)-thiazol-2-ylamino]-4-isopropoxy-benzamide.TFA] are 0.21 µM, 4.1 µM, 1.4 µM and 0.6 µM.
On the same counts, the results for `Cc1cc2cccc(Nc3nc(-c4cccnc4)cs3)c2o1` [Example 3, (2-Methyl-benzofuran-7-yl)-(4-pyridin-3-yl-thiazol-2-yl)-amine] are 33 µM, 38 µM, over 95 µM and about 5 µM.
On to `Cc1nc(C(F)(F)F)ccc1-c1csc(Nc2cc(C(N)=O)ccc2OC(C)C)n1` [Example 24, 4-Isopropoxy-3-[4-(2-methyl-6-trifluoromethyl-pyridin-3-yl)-thiazol-2-ylamino]-benzamide.TFA], for which the Kd in assay [1] was 2.2 µM; in assay [2], over 95 µM; in assay [3] it was 3.7 µM. The same compound showed an IC50 in assay [4] of about 3 µM.
In the case of `COc1ccc(S(N)(=O)=O)cc1Nc1nc(-c2cccnc2)cs1` [Example 12, 4-Methoxy-3-(4-pyridin-3-yl-thiazol-2-ylamino)-benzenesulfonamide.TFA], the Kd was 17 µM in assay [1], 29 µM in assay [2] and over 95 µM in assay [3]. In assay [4], this compound yielded an IC50 of over 20 µM.
On the same counts, the results for `CC(C)Oc1ccc(C(N)=O)cc1Nc1nc(-c2ccc(Br)nc2)cs1` [Example 20, 4-Isopropoxy-3-[4-(6-bromo-pyridin-3-yl)-thiazol-2-ylamino]-benzamide.TFA] are 0.34 µM, 3.3 µM, 0.23 µM and 0.64 µM.
On the same counts, the results for `COc1ccc(CC(N)=O)cc1Nc1nc(-c2cccnc2)cs1` [Example 5, 2-[4-Methoxy-3-(4-pyridin-3-yl-thiazol-2-ylamino)-phenyl]-acetamide] are 53 µM, 33 µM, over 95 µM and about 19 µM.
On the same counts, the results for `COc1ccc(C#N)cc1Nc1nc(-c2cccnc2)cs1` [Example 9, 4-Methoxy-3-(4-pyridin-3-yl-thiazol-2-ylamino)-benzonitrile.HBr] are 7.4 µM, 43 µM, 18 µM and 2.6 µM.
Regarding `COc1ccc(-c2csc(Nc3cc(C(N)=O)ccc3OC(C)C)n2)cn1` [Example 25, 4-Isopropoxy-3-[4-(6-methoxy-pyridin-3-yl)-thiazol-2-ylamino]-benzamide.TFA], the figures for the Kd in assay [1], in assay [2] and in assay [3] were 0.17 µM, 2 µM and 1.8 µM, respectively. Besides, the midpoint of inhibition in assay [4], the IC50, lay at 0.46 µM.
In the same order, the values of `Cc1cc(C)c(-c2csc(Nc3cc(C(N)=O)ccc3OC(C)C)n2)c(C)n1` [Example 19, 4-Isopropoxy-3-[4-(2,4,6-trimethyl-pyridin-3-yl)-thiazol-2-ylamino]-benzamide.TFA] are 27 µM, 14 µM, 6.2 µM and about 4 µM.
As to `NS(=O)(=O)c1ccc(OC(F)(F)F)c(Nc2nc(-c3cccnc3)cs2)c1` [Example 59, 3-(4-Pyridin-3-yl-thiazol-2-ylamino)-4-trifluoromethoxy-benzenesulfonamide], the Kd in assay [1] was 36 µM; in assay [3], over 95 µM. The IC50 in assay [4] is over 20 µM.
